What was measured:
[1] = system: Cyclic AMP Accumulation in Intact Cells: Melatonin; assay: Functional activity: cyclic AMP accumulation in intact cells (forskolin-stimulated); assay type: cell-based; details: 10 min, read-out: I.A. (Intrinsic Activity) = Emax (experimental compound)/Emax (melatonin)
Method: Measurement of Functional Activity
Cyclic AMP Accumulation in Intact Cells: Melatonin
The media was removed from cell flask and washed with Hank's salt solution or PBS, as appropriate. The cells were detached from flask. Enough media was added so that the concentration of cells is 4×10^5 /ml when counted with a hemocytometer. Dialyzed or heat inactivated fetal bovine serum (FBS) was used in the media when plating the cells. 1 ml of cell suspension was put into each well, then 2 mls of media. Cells were incubated overnight.
1. Stock solution: plain media (no serum or additives)+20 mM HEPES.
2. IBMX solution: media/HEPES+1 mM IBMX.
3. Assay solution: 90% stock solution+10% IBMX solution.
Each well gets 3 mls of assay solution for preincubation and 3 mls for the assay. Each test condition is done in triplicate.
a) Basal assay solution+DMSO
b) Forskolin stimulation: 10 μM final concentration.
All tests were done in triplicate at 37° C. Plates with cells were kept in a shallow 37° C. water bath throughout the reaction. Media was taken from the wells and 3 ml of preincubation media was added. After 10 min, that solution was removed and 3 mls of drug solution was added. After 10 min, the media was removed and reaction stopped with HCl. Samples set for at least an hour at room temperature. 1 ml from each dish was taken and put into a microfuge tube and spun to remove floating cells. After dilution to 1:100 for RIA, a radioimmuno-assay was done.

human ML1A = target: T1, human ML1A (Homo sapiens, UniProt P48039); assay: Melatonergic binding (2-[125I]-iodomelatonin displacement, NIH 3T3 cell membranes); details: human ML1A in NIH 3T3 membranes; 100 pM 2-[125I]-iodomelatonin; 37° C., 1 hour; read-out: Binding Affinity (IC50)
T1 construct: expressed in transfected cells; pcDNA3; membrane homogenates
T1 sequence (P48039 whole entry): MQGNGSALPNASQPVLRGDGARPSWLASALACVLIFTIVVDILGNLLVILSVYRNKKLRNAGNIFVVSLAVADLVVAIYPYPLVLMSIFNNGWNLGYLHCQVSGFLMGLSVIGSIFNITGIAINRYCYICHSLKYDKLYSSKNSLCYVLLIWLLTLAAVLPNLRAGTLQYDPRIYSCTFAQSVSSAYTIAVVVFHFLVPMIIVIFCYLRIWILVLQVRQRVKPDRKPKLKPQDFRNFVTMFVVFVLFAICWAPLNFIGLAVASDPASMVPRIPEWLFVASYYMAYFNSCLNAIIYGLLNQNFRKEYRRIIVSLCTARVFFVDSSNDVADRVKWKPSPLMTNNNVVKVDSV
Method: Measurement of Melatonergic Binding
(a) 50 mM Tris buffer containing 12.5 mM MgCl2 and 2 mM EDTA (pH 7.4 at 37° C.).
(b) Wash buffer: 20 mM Tris base containing 2 mM MgCl2 (pH 7.4 at room temperature).
(d) 2-[^125 I]-iodomelatonin (100 pM final concn.). Source: NEN
2.Membrane preparation. The receptor cDNA (human ML1A) was subcloned into pcDNA3 and introduced into NIH 3T3 cells using Lipofectamine. Transformed NIH 3T3 cells resistant to geneticin were isolated and single colonies expressing high levels of 2-[^125 I]-iodomelatonin binding were isolated and characterized. Cell pellets were frozen at -80° C. for further use. For preparing membrane homogenates, pellets are thawed on ice, and resuspended in TME buffer, Tris base, MgCl2, EDTA (pH 7.4 at 37° C.), supplemented with aprotinin, leupeptin, and phenylmethlysulfonylfluoride. The cells were then homogenized using a dounce homogenizer, and centrifuged. The resulting pellet was resuspended with a dounce homogenizer in TME and frozen. On the day of assay, the small aliquot was thawed on ice and resuspended in TME buffer.
3. Incubation: 37° C. for 1 hour. Reaction is terminated by filtration.
The procedure was based on that disclosed in: Reppert, S. M., Weaver, D. R., and Ebisawa, R. (1994), Neuron, 13, 1177-1185 (1994).

circadian rhythms = details: rats; in words; cited from earlier work
[2] = in words; cited from earlier work
[3] = system: jet-lag related sleep disturbances; details: humans; in words; cited from earlier work

In the case of `CCC(=O)NCCC1c2cc(OC)ccc2-c2ccc(OC)cc21` [Example 5, N-[2-(2,7-dimethoxyfluoren-9-yl)ethyl]propanamide], the Emax [1] is reported as 114% and the IC50 (human ML1A) is reported as under 10 nM.

For `CCCC(=O)NCCC1c2ccccc2-c2ccc(OC)cc21` (centres unmarked) [Example 6, N-[2-(2-methoxyfluoren-9-yl)ethyl]butanamide], the IC50 (human ML1A) was under 100 nM.

Work on `COc1ccc2c(c1)C(CCNC(=O)C1CC1)c1cc(OC)ccc1-2` [Example 7, N-[2-(2,7-dimethoxyfluoren-9-yl)ethyl]cyclopropane carboxamide] yielded an Emax [1] of 102%.

`COCC(=O)NCCC1c2cc(OC)ccc2-c2ccc(OC)cc21` [Example 9, N-[2-(2,7-dimethoxyfluoren-9-yl)ethyl]methoxyacetamide] gave an IC50 (human ML1A) of under 100 nM.

`CCCC(=O)NCCC1c2cc(OC)ccc2-c2ccc(OC)cc21` [Example 10, N-[2-(2,7-dimethoxyfluoren-9-yl)ethyl]butanamide] showed an Emax [1] of 115%.

With `C=CC(=O)NCCC1c2ccccc2-c2ccc(OC)cc21` (centres unmarked) [Example 11, N-[2-(2-methoxyfluoren-9-yl)ethyl]-2-propenamide] the IC50 (human ML1A) was under 100 nM.

With `COc1ccc2c(c1)C(CCNC(=O)C1CCC1)c1cc(OC)ccc1-2` [Example 13, N-[2-(2,7-dimethoxyfluoren-9-yl)ethyl]cyclobutane carboxamide] the IC50 (human ML1A) was under 10 nM.

`COc1ccc2c(c1)C(CCNC(=O)C(C)(C)C)c1cc(OC)ccc1-2` [Example 14, N-[2-(2,7-dimethoxyfluoren-9-yl)ethyl]-2,2-dimethyl propanamide] gave an IC50 (human ML1A) of under 500 nM.

`COc1ccc2c(c1)C(CCCNC(C)=O)c1cc(OC)ccc1-2` [Example 20, N-[3-(2,7-dimethoxyfluoren-9-yl)prop-1-yl]acetamide] showed an IC50 (human ML1A) of under 100 nM.

`CCOc1ccc2c(c1)C(CCNC(=O)CC)c1cc(OC)ccc1-2` (centres unmarked) [Example 29, N-[2-(2-ethoxy-7-methoxyfluoren-9-yl)-ethyl]propanamide] gave an IC50 (human ML1A) of under 100 nM.

For `COc1ccc2[nH]cc(CCNC(C)=O)c2c1` [melatonin, N-acetyl-5-methoxytryptamine], the “effect of exogenous administration on circadian rhythms” value (circadian rhythms) is listed as “synchronize circadian rhythms in rats”, the oral bioavailability [2] is listed as “often low and variable” and the “treatment of jet-lag related sleep disturbances” value [3] is listed as “used to treat jet-lag related sleep disturbances”.

— patent US5736578A, “Ethylamido fluorenes and improved method of making same” (Bristol-Myers Squibb Company, priority 1996, dated 1998)
